The text below walks through data of patent US10420803B2, “Differentiation of pluripotent stem cells to intestinal midgut endoderm cells” (Janssen Biotech, Inc., priority 2016, dated 2019).

What all share (format): cell-based, human
Assay [1] concerns H1-hESC-derived S3D5 cells. Briefly: Gene expression by qPCR (Taqman Arrays) in S3D5 cells. The protocol: (§1) Differentiation: The cultures were differentiated using the following protocol. During Stages 1 through 3 of the protocol, cultures were maintained on planar adherent cultures. […] The following nomenclature, S#D#, specifies exact time during Stages 1 through 3. For example, S1D3 is stage 1 day 3. Briefly, each stage defines differentiation towards definitive endoderm (stage 1), primitive gut tube (stage 2), and intestinal midgut endoderm (stage 3). • a. Stage 1 (3 days): Cells were cultured for one day in the following Stage 1 media:
For quantification of gene expression at various stages, Caco-2, H1-hESC, S1D3, S2D2, S3D2 and S3D5 cells were harvested, as described in Nature Biotechnology, 2014 (32) 11, 1121-1133. Briefly, gene expression was assessed in cells using custom Taqman® Arrays (Applied Biosystems, Foster City, Calif.); Open Array® (OA) was used for CDX2, FOXA2, SOX2, SOX9, PDX1, ALB, PTF1A, and Taqman® Low Density Array (TLDA) was used for KLF5, HOXC5, and LGR5, with housekeeping gene GAPDH used for both tests. Data were analyzed using Sequence Detection Software (Applied Biosystems, Foster City, Calif.), and normalized using GAPDH as a housekeeping gene to undifferentiated H1-hESC using the ΔΔCt method. Primer details are outlined in Table IV.
On the technique in general: Real-time PCR tracks product formation cycle by cycle.

Assay [2] deals with H1-hESC-derived S3D5 cells. The assay is described as follows: FACS quantification of protein co-presence in S3D5 cells. The protocol:
as §1
Quantification of differentiated cells: For quantification of protein presence co-localization, S3D5 cells were harvested and analyzed by FACS. FACS staining was conducted as described in Nature Biotechnology, 2014 (32) 11, 1121-1133, incorporated herein by reference in its entirety, and using the antibodies listed in Table II. In brief, differentiated cells were incubated in TrypLE™ Express (Life Technologies, Carlsbad, Calif., Catalog No. 12604) for 5-10 minutes at 37° C., released into a single-cell suspension, after which they were washed twice with a staining buffer of PBS containing 0.2% BSA (BD Biosciences, San Jose, Calif., Catalog No. 554657). Intracellular antibody staining was accomplished by utilizing the LIVE/DEAD Violet Fluorescent reactive dye (Life Technologies, Carlsbad, Calif., Catalog No. L34955) at 4° C. for 30 minutes followed by a single wash in cold PBS. Fixing of cells was in 300 μl of Cytofix/Cytoperm Buffer (BD Biosciences, San Jose, Calif., Catalog No. 554723) followed by two washes in Perm/Wash Buffer (BD Biosciences, San Jose, Calif., Catalog No. 554722). Cells were then incubated with the appropriate antibodies at 4° C. for 30 minutes (for unconjugated antibodies) or 1 hour (for conjugated antibodies), and then washed twice prior to analysis on the BD FACS Canto II using BD FACS Diva Software with at least 30,000 events being acquired. Non-viable cells were excluded during FACS analysis, and gating was determined by using isotype antibodies (“IgG”). IgG FACS data is shown as the top panel for each FACS experiment presented. Antibodies were tested for specificity using positive controls, such as Caco-2 cells, or negative controls, such as S1D3 definitive endoderm (“DE”) cells.

The test system of assay [3] is H1-hESC-derived S3D5 cells. The assay is described as follows: Cell number characterization using the Nucleocounter NC-100. The protocol: A summary of a differentiation method, including the important medium components, growth factors and small molecules that were added to each stage, and key stage-specific markers of the differentiating intestinal midgut endoderm cells (FOXA2; CDX2; KLF5; SOX9; PDX1^LO) is depicted in FIG. 1A. As compared to the neutral pH noted for S2D2 (7.35±0.04), cells were exposed to slightly acidic conditions in the BLAR medium, during the entirety of stage 3 (pH; S3D1, 6.98±0.05; S3D2, 7.02±0.04; S3D5, 7.18±0.03) (FIG. 1B), and as a result of lower sodium bicarbonate levels in BLAR medium. The pH of the culture can range from about 6.8 to 7.2 during the five days of stage 3. FIG. 1C depicts representative phase-contrast images of a S3D5 monolayer (left), and human epithelial colon adenocarcinoma cell line (“Caco-2”) (right), which was used as a benchmark for characterization of differentiation. A uniform morphology at S3D5 was observed.

The mark [4] stands for this setting: S3D5, compared to pancreas-biased S4D3 cells.

With “BMP4: Bone morphogenic protein-4, 50 ng/ml with 1 μM retinoic acid in BLAR medium during Stage 3”, in assay [1] (S3D5), the ALB gene expression result was “not observed”, the HOXA13 gene expression result is “not induced”, the HOXC5 gene expression result was “strongly induced” and the KLF5 gene expression result is listed as “upregulated”. In assay [1] (S3D5), the LGR5 gene expression result is given as “not induced”; the SOX2 gene expression entry is “below levels seen in hESC and Caco-2 cells”. For the same substance, in assay [1] (S3D5, compared to Caco-2 cells), the SOX9 gene expression result was “Strong induction”. In addition, in assay [1] (setting [4]), the PDX1 gene expression entry is recorded as “induced at low levels” and the PTF1A gene expression entry was “not induced”. Further, in assay [1] (during Stage 3), the CDX2 gene expression result was “induced” and the FOXA2 gene expression result is listed as “maintained”. In assay [2], the “S3D5 cells exhibiting SOX2 and CDX2 co-presence” value worked out at 1.45±0.15%; the “percent of cells co-positive for both CDX2 and PDX1” value was found to be 69.4±14.2%; the “percent of cells co-present for both CDX2 and SOX9” value came out at 98.7±0.25%. The “percent of S3D5 cells co-present for both CDX2 and FOXA2 protein” value in assay [2] (Stage 3 in BLAR medium with 1 μM retinoic acid and 50 ng/ml BMP) was determined as 90.0±5.85%. Further, the “percentage KI67-protein positive cells of total S3D5 cells” value in assay [2] (total cells >90% CDX2-positive) amounted to 16.8±3.12%. Also, the “S3D5 cells obtained from one hESC” value in assay [3] came out at 4.56±2.60.
